We go through 25 molecules from patent US20230146675A1, “PYRIMIDO[5,4-d]PYRIMIDINE DERIVATIVES AS ENT INHIBITORS FOR THE TREATMENT OF CANCERS, AND COMBINATION THEREOF WITH ADENOSINE RECEPTOR ANTAGONISTS” (ITEOS BELGIUM SA, priority 2020, published 2023).

The target in this assay is T1, human ENT1 (Homo sapiens, UniProt Q99808).
T1 sequence (Q99808 1-456): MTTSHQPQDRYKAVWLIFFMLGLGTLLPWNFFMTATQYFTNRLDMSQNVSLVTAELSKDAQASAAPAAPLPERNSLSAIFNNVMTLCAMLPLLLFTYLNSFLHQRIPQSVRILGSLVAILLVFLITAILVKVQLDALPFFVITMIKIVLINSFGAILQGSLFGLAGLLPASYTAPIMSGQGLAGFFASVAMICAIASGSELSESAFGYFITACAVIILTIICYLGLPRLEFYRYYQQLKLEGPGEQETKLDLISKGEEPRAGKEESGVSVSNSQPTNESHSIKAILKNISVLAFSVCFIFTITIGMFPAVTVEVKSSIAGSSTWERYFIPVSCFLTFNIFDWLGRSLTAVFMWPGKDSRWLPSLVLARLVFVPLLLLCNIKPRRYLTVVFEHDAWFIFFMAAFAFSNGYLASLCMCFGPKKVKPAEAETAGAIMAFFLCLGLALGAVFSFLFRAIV
Description: ENT1 binding assay (competition with Sahenta-DY647 on JAR cells). Also noted: JAR cells expressing ENT1 were bought from ATCC; host or cells: JAR cells. The following applies: binned IC50. Put shortly:
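JAR cells were incubated with test compounds and the fluorescent ligand Sahenta-DY647 in competition. Plates were washed twice by centrifugation (4 min, 400 rcf, 4 °C). Binding potency was derived from the final fluorescence.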
As to `COC(C)CN(CC(C)OC)c1nc(N2CCC(OC)CC2)c2nc(N(CCO)CCO)nc(N3CCN(C)C(=O)C3)c2n1` (stereo not shown) [Compound 328, 4-(2-(bis(2-hydroxyethyl)amino)-6-(bis(2-methoxypropyl)amino)-8-(4-methoxypiperidin-1-yl)pyrimido[5,4-d]pyrimidin-4-yl)-1-methylpiperazin-2-one], the IC50 (in general, the concentration needed to halve the response being measured) was in the range of 100 to 500 nM.
The result for `COCCN(CCOC)c1nc(N2CCn3nccc3C2)c2nc(N(CCOC)CCOC)nc(N3CCN(C)C(=O)C3)c2n1` [Compound 260, 4-(2,6-bis(bis(2-methoxyethyl)amino)-8-(6,7-dihydropyrazolo[1,5-a]pyrazin-5(4H)-yl)pyrimido[5,4-d]pyrimidin-4-yl)-1-methylpiperazin-2-one] reads < 100 nM.
As for `COCCN(CCOC)c1nc(N2CCC(F)(F)CC2)c2nc(N(CCOC)CCOC)nc(N3CCC(F)(F)CC3)c2n1` [Compound 195, 4,8-bis(4,4-difluoropiperidin-1-yl)-N2,N2,N6,N6-tetrakis(2-methoxyethyl)pyrimido[5,4-d]pyrimidine-2,6-diamine], the IC50 lay within 100 to 500 nM.
`COCCN(CCOC)c1nc(N2CCC(OC)CC2)c2nc(N(CCOC)CCOC)nc(N3CCCC3)c2n1` [Compound 89, N2,N2,N6,N6-tetrakis(2-methoxyethyl)-4-(4-methoxypiperidin-1-yl)-8-(pyrrolidin-1-yl)pyrimido[5,4-d]pyrimidine-2,6-diamine] displayed an IC50 of 100 to 500 nM.
As for `COCCN(CCOC)c1nc(N2CCC(OC)CC2)c2nc(N(CCO)CCO)nc(N3CCN(C)C(=O)C3)c2n1` [Compound 270, 4-(2-(bis(2-hydroxyethyl)amino)-6-(bis(2-methoxyethyl)amino)-8-(4-methoxypiperidin-1-yl)pyrimido[5,4-d]pyrimidin-4-yl)-1-methylpiperazin-2-one], the IC50 fell in the range of 100 to 500 nM.
In the case of `COCCN(CCOC)c1nc(N2CCn3ncnc3C2)c2nc(N(CCOC)CCOC)nc(N3CCN(C)C(=O)C3)c2n1` [Compound 5, 4-(2,6-bis(bis(2-methoxyethyl)amino)-8-(5,6-dihydro-[1,2,4]triazolo[1,5-a]pyrazin-7(8H)-yl)pyrimido[5,4-d]pyrimidin-4-yl)-1-methylpiperazin-2-one], the half-maximal inhibitory concentration (IC50) is < 100 nM.
In turn, `COCCN(CCOC)c1nc(N2CCC(OC)CC2)c2nc(N(CCOC)CCOC)nc(NCc3cnc(Cl)s3)c2n1` [Compound 160, N4-((2-chlorothiazol-5-yl)methyl)-N2,N2,N6,N6-tetrakis(2-methoxyethyl)-8-(4-methoxypiperidin-1-yl)pyrimido[5,4-d]pyrimidine-2,4,6-triamine] came in with an IC50 of 500 to 1000 nM.
As to `COCCN(CCOC)c1nc(N2CCC(OC)CC2)c2nc(N(CCOC)CCOC)nc(NCc3ccc(OC)c(OC)c3)c2n1` [Compound 170, N4-(3,4-dimethoxybenzyl)-N2,N2,N6,N6-tetrakis(2-methoxyethyl)-8-(4-methoxypiperidin-1-yl)pyrimido[5,4-d]pyrimidine-2,4,6-triamine], the IC50 was < 100 nM.
With `COCCN(CCOC)c1nc(N2CCC(OC)CC2)c2nc(N(CCOC)CCOC)nc(N(C)Cc3ccncc3)c2n1` [Compound 82, N2,N2,N6,N6-tetrakis(2-methoxyethyl)-8-(4-methoxypiperidin-1-yl)-N4-methyl-N4-(pyridin-4-ylmethyl)pyrimido[5,4-d]pyrimidine-2,4,6-triamine] the figure was 100 to 500 nM; with `CCCN(C)c1nc(N(CCOC)CCOC)nc2c(N3CCS(=O)(=O)CC3)nc(N(CCOC)CCOC)nc12` [Compound 8, 4-(2,6-bis(bis(2-methoxyethyl)amino)-8-(methyl(propyl)amino)pyrimido[5,4-d]pyrimidin-4-yl)thiomorpholine 1,1-dioxide], < 100 nM; with `COCCN(CCOC)c1nc(N2CCC(OC)CC2)c2nc(N(CCOC)CCOCCCN3CCN(C)CC3)nc(N3CCC(OC)CC3)c2n1` [Compound 16, N2,N2,N6-tris(2-methoxyethyl)-4,8-bis(4-methoxypiperidin-1-yl)-N6-(2-(3-(4-methylpiperazin-1-yl)propoxy)ethyl)pyrimido[5,4-d]pyrimidine-2,6-diamine], 500 to 1000 nM.
The result for `CCOCCN(CCOCC)c1nc(N2CCN(C)C(=O)C2)c2nc(N(CCOCC)CCOCC)nc(N3CCC(OC)CC3)c2n1` [Compound 199, 4-(2,6-bis(bis(2-ethoxyethyl)amino)-8-(4-methoxypiperidin-1-yl)pyrimido[5,4-d]pyrimidin-4-yl)-1-methylpiperazin-2-one] reads < 100 nM; that for `COCCN(CCOC)c1nc(N2CCN(C)C(=O)C2)c2nc(N3CCn4cncc4C3)nc(N3CCC(OC)CC3)c2n1` [Compound 298, 4-(2-(bis(2-methoxyethyl)amino)-6-(5,6-dihydroimidazo[1,5-a]pyrazin-7(8H)-yl)-8-(4-methoxypiperidin-1-yl)pyrimido[5,4-d]pyrimidin-4-yl)-1-methylpiperazin-2-one], 500 to 1000 nM.
`COCCN(CCO)c1nc(N2CCC(OC)CC2)c2nc(N(CCOC)CCOC)nc(N3CCC(OC)CC3)c2n1` [Compound 34, 2-((6-(bis(2-methoxyethyl)amino)-4,8-bis(4-methoxypiperidin-1-yl)pyrimido[5,4-d]pyrimidin-2-yl)(2-methoxyethyl)amino)ethanol] returned an IC50 of 500 to 1000 nM.
Take `COCCN(CCOC)c1nc(N2CCc3oc(C)nc3C2)c2nc(N(CCOC)Cc3ccc(C(=O)O)cc3)nc(N3CCN(C)C(=O)C3)c2n1` [Compound 335, 4-(((6-(bis(2-methoxyethyl)amino)-4-(4-methyl-3-oxopiperazin-1-yl)-8-(2-methyl-6,7-dihydrooxazolo[4,5-c]pyridin-5(4H)-yl)pyrimido[5,4-d]pyrimidin-2-yl)(2-methoxyethyl)amino)methyl)benzoic acid]: the IC50 is < 100 nM.
`CCN(CCN1CCCC1)c1nc(N2CCC(OC)CC2)c2nc(N(CCOC)CCOC)nc(N3CCC(OC)CC3)c2n1` [Compound 132, N2-ethyl-N6,N6-bis(2-methoxyethyl)-4,8-bis(4-methoxypiperidin-1-yl)-N2-(2-(pyrrolidin-1-yl)ethyl)pyrimido[5,4-d]pyrimidine-2,6-diamine] returned a half-inhibitory concentration (IC50) of 500 to 1000 nM.
As for `COCCN(CCOC)c1nc(N2CCN(C)C(=O)C2)c2nc(N(CCOC)CCOC)nc(NCc3cccc(Cl)c3)c2n1` [Compound 208, 4-(2,6-bis(bis(2-methoxyethyl)amino)-8-((3-chlorobenzyl)amino)pyrimido[5,4-d]pyrimidin-4-yl)-1-methylpiperazin-2-one], the IC50 is < 100 nM.
Turning to `COCCN(CCOC)c1nc(N2CCN(C)C(=O)C2)c2nc(N(CCOC)CCOC)nc(NCc3cccc(F)c3)c2n1` [Compound 207, 4-(2,6-bis(bis(2-methoxyethyl)amino)-8-((3-fluorobenzyl)amino)pyrimido[5,4-d]pyrimidin-4-yl)-1-methylpiperazin-2-one], the IC50 is < 100 nM.
Take `COCCN(CCOC)c1nc(N2CCc3cc(OC)c(OC)cc3C2)c2nc(N(CCOC)CCOC)nc(N3CCc4cc(OC)c(OC)cc4C3)c2n1` [Compound 4, 4,8-bis(6,7-dimethoxy-3,4-dihydroisoquinolin-2(1H)-yl)-N2,N2,N6,N6-tetrakis(2-methoxyethyl)pyrimido[5,4-d]pyrimidine-2,6-diamine]: the IC50 was 100 to 500 nM.
For the molecule `COCCN(CCOC)c1nc(N2CCC(C)C2)c2nc(N(CCOC)CCOC)nc(N3CCC(OC)CC3)c2n1` (stereo not shown) [Compound 91, N2,N2,N6,N6-tetrakis(2-methoxyethyl)-4-(4-methoxypiperidin-1-yl)-8-(3-methylpyrrolidin-1-yl)pyrimido[5,4-d]pyrimidine-2,6-diamine], the IC50 is 100 to 500 nM.
With `COCCN(CCOC)c1nc(N2CCS(=O)(=O)CC2)c2nc(N(CCOC)CCOC)nc(N3CCS(=O)(=O)CC3)c2n1` [Compound 37, 4,4′-(2,6-bis(bis(2-methoxyethyl)amino)pyrimido[5,4-d]pyrimidine-4,8-diyl)bis(thiomorpholine 1,1-dioxide)] the figure was 500 to 1000 nM; with `COCCN(CCOC)c1nc(N2CCC(OC)CC2)c2nc(N3CCc4[nH]cnc4C3)nc(N3CCN(C)C(=O)C3)c2n1` [Compound 290, 4-(6-(bis(2-methoxyethyl)amino)-8-(4-methoxypiperidin-1-yl)-2-(1,4,6,7-tetrahydro-5H-imidazo[4,5-c]pyridin-5-yl)pyrimido[5,4-d]pyrimidin-4-yl)-1-methylpiperazin-2-one], 500 to 1000 nM.
For the molecule `COCCN(CCOC)c1nc(N2CCn3ncnc3C2)c2nc(N(CCOC)CCOC)nc(N3CCC(OC)CC3)c2n1` [Compound 116, 4-(5,6-dihydro-[1,2,4]triazolo[1,5-a]pyrazin-7(8H)-yl)-N2,N2,N6,N6-tetrakis(2-methoxyethyl)-8-(4-methoxypiperidin-1-yl)pyrimido[5,4-d]pyrimidine-2,6-diamine], the IC50 is < 100 nM.
As to `COCCN(CCOC)c1nc(N2CCC(OC)CC2)c2nc(N(CCOC)CCOC)nc(NCc3cccc(OC(F)F)c3)c2n1` [Compound 144, N4-(3-(difluoromethoxy)benzyl)-N2,N2,N6,N6-tetrakis(2-methoxyethyl)-8-(4-methoxypiperidin-1-yl)pyrimido[5,4-d]pyrimidine-2,4,6-triamine], the IC50 was 100 to 500 nM.
With `COCCN(CCOC)c1nc(N2CCN(c3nnc(C)o3)CC2)c2nc(N(CCOC)CCOC)nc(N3CCC(OC)CC3)c2n1` [Compound 135, N2,N2,N6,N6-tetrakis(2-methoxyethyl)-4-(4-methoxypiperidin-1-yl)-8-(4-(5-methyl-1,3,4-oxadiazol-2-yl)piperazin-1-yl)pyrimido[5,4-d]pyrimidine-2,6-diamine] the figure was 500 to 1000 nM.
